According to ChEMBL document CHEMBL1932917, “4,5-dihydropyridazin-3-one derivatives as histamine H₃ receptor inverse agonists” (Bioorg Med Chem Lett, 2012):

How the values were obtained:
Histamine H3 receptor [1] = target: T1, Histamine H3 receptor (Homo sapiens, UniProt Q9Y5N1); assay: Displacement of [3H]NAMH from human histamine H3 receptor expressed in CHO cells; type: cell-based
Histamine H3 receptor [2] = target: Histamine H3 receptor (Rattus norvegicus, UniProt Q9QYN8); assay: Displacement of [3H]NAMH from rat histamine H3 receptor expressed in CHO cells; type: cell-based
Sequence of Histamine H3 receptor (Rattus norvegicus, UniProt Q9QYN8) (Q9QYN8 whole entry): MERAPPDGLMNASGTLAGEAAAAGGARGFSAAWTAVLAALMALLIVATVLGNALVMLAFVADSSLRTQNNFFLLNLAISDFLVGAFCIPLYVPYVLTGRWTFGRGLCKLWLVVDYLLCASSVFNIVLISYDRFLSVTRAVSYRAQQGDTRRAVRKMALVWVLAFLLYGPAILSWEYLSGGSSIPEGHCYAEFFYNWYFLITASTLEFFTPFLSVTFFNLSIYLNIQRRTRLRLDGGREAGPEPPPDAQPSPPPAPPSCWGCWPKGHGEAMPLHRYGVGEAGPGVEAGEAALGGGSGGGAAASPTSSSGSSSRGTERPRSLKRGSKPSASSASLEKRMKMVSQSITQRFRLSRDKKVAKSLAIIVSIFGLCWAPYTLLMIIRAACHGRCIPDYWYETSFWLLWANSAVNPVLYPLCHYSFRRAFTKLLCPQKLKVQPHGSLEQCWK

[3] = Oral bioavailability in rat at 5 mg/kg; type: ADME, organism-based; details: in vivo
Cytochrome P450 2D6 = Cytochrome P450 2D6 (Homo sapiens, UniProt P10635); assay: Inhibition of CYP2D6; type: ADME
Sequence of Cytochrome P450 2D6 (P10635 whole entry): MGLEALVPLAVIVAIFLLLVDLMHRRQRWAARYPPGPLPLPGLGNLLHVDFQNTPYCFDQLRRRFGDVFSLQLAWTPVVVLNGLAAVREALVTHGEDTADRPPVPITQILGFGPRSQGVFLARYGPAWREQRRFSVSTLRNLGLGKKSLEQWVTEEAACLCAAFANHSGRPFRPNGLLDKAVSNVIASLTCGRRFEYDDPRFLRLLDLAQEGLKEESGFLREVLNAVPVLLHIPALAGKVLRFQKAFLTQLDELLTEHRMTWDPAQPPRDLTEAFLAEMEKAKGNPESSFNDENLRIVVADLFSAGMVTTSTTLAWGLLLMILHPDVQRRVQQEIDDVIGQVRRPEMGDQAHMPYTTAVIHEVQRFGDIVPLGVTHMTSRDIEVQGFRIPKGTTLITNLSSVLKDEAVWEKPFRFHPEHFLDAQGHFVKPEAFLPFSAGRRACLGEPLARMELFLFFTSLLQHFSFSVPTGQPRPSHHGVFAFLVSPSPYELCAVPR

[4] = Clearance in rat at 1 mg/kg, iv; type: ADME, organism-based; design: dose 1 mg/kg, route intravenous; details: in vivo
[5] = Cmax in rat at 5 mg/kg, po; type: ADME, organism-based; design: dose 5 mg/kg, route oral; details: in vivo
[6] = AUC in rat at 5 mg/kg, po; type: ADME, organism-based, Plasma; design: dose 5 mg/kg, route oral; details: plasma
[7] = Half life in rat at 1 mg/kg, iv; type: ADME, organism-based; design: dose 1 mg/kg, route intravenous; details: in vivo
Rattus norvegicus [8] = assay: Effect on sleep-awake cycle in EEG/EMG rat model assessed as wake promotion at 10 mg/kg, ip after 5 hrs relative to control; type: functional; details: route intraperitoneal
Rattus norvegicus [9] = assay: Effect on sleep-awake cycle in EEG/EMG rat model assessed as wake promotion at 10 mg/kg, ip after 4 hrs (reference value: 80 +/- 5 mins); type: functional; details: route intraperitoneal
[10] = Half life in monkey liver microsomes; type: ADME, Macaca mulatta, Microsome; details: rhesus monkey
Rattus norvegicus [11] = assay: Effect on sleep-awake cycle in EEG/EMG rat model assessed as wake promotion time at 10 mg/kg, ip after 3 hrs relative to control; type: functional; details: route intraperitoneal
Cytochrome P450 1A2 = target: T2, Cytochrome P450 1A2 (Homo sapiens, UniProt P05177); assay: Inhibition of CYP1A2; type: ADME
T2 sequence (P05177 whole entry): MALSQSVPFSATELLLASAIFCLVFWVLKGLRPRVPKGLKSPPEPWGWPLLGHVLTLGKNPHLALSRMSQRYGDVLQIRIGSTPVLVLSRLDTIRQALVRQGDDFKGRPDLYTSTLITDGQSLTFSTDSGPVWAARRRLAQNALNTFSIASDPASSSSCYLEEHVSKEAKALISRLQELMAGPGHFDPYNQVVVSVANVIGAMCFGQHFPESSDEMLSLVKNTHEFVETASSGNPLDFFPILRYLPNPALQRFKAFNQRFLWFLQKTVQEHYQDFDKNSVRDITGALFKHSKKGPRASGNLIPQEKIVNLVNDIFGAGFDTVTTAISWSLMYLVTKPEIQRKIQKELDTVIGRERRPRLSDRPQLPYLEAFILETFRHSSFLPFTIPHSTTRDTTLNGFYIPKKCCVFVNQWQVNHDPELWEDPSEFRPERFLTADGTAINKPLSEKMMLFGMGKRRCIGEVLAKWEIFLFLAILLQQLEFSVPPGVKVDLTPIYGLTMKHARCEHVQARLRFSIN

[12] = Solubility of the compound in water at pH 7.4; type: physicochemical
[13] = target: Histamine H4 receptor (Homo sapiens) (UniProt Q9H3N8); assay: Inhibition human histamine H4 receptor at 10 uM
Sequence of Histamine H4 receptor (Homo sapiens) (Q9H3N8 whole entry): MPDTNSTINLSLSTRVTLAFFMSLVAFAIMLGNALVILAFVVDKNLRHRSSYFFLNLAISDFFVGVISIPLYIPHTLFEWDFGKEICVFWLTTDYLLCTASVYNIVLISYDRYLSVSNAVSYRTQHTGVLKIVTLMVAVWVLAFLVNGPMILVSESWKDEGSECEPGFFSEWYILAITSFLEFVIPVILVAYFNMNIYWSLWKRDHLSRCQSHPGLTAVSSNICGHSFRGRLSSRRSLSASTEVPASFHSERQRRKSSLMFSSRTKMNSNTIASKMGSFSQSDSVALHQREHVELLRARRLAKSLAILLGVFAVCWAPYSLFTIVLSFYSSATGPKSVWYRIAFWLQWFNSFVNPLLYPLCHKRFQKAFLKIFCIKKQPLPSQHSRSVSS

Histamine H3 receptor [14] = target: T1, Histamine H3 receptor; assay: Inverse agonist activity at human histamine H3 receptor by [35S]GTPgammaS binding assay; type: functional
[15] = Ratio of drug level in brain to plasma in rat at 10 mg/kg, ip after 6 hrs; type: ADME, organism-based; design: dose 10 mg/kg, route intraperitoneal; details: brain/plasma, read-out: BPR
[16] = Half life in human liver microsomes; type: ADME, Microsome
Rattus norvegicus [17] = assay: Effect on sleep-awake cycle in EEG/EMG rat model assessed as wake promotion at 10 mg/kg, ip after 17 hrs relative to control; type: functional; details: route intraperitoneal
[18] = Plasma protein binding in rat; type: ADME, cell-free; details: read-out: PPB (converted)
[19] = Volume of distribution in rat at 1 mg/kg, iv; type: ADME, organism-based; design: dose 1 mg/kg, route intravenous; details: in vivo
[20] = Half life in dog liver microsomes; type: ADME, Canis lupus familiaris, Microsome
Cytochrome P450 2C19 = Cytochrome P450 2C19 (Homo sapiens, UniProt P33261); assay: Inhibition of CYP2C19; type: ADME
Sequence of Cytochrome P450 2C19 (P33261 whole entry): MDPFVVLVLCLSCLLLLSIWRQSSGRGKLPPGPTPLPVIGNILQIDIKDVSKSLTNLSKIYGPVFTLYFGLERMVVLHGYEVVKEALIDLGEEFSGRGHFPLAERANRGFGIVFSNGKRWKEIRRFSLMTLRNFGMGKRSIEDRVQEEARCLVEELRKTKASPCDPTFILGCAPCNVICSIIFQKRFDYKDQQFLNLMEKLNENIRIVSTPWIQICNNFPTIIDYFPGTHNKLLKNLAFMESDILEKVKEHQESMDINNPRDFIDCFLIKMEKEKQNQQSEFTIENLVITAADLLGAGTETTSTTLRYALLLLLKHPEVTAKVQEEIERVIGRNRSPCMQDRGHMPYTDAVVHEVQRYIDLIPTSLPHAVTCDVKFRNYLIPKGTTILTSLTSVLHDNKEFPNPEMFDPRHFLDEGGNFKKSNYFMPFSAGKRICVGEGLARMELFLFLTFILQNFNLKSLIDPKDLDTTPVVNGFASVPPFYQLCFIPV

Rattus norvegicus [21] = assay: Inhibition of RAMH-induced dipsogenia in po dosed rat; type: functional
[22] = Half life in mouse liver microsomes; type: ADME, Microsome
[23] = Plasma protein binding in human; type: ADME, cell-free; details: read-out: PPB (converted)
[24] = Apparent permeability of the compound in human Caco2 cells; type: ADME, cell-based; details: Caco-2
[25] = Half life in rat liver microsomes; type: ADME, Microsome
Rattus norvegicus [26] = assay: Effect on sleep-awake cycle in EEG/EMG rat model assessed as wake promotion time at 10 mg/kg, ip after 4 hrs relative to control; type: functional; details: route intraperitoneal
Cytochrome P450 2C9 = Cytochrome P450 2C9 (Homo sapiens, UniProt P11712); assay: Inhibition of CYP2C9; type: ADME
Sequence of Cytochrome P450 2C9 (P11712 whole entry): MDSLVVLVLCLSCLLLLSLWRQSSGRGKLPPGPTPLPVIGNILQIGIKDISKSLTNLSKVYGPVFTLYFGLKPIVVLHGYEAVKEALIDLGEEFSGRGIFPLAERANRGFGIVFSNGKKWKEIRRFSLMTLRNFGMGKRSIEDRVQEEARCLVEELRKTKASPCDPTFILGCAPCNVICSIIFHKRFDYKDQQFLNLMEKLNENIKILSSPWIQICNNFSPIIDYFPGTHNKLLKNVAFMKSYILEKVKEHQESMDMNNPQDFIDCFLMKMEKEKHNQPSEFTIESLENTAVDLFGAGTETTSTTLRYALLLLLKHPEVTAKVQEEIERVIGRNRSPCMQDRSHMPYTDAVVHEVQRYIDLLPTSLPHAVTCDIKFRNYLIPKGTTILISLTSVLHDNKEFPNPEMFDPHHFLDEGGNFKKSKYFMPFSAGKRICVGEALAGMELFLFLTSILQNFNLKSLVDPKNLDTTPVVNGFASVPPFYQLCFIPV

[27] = target: Histamine H1 receptor (Homo sapiens) (UniProt P35367); assay: Inhibition human histamine H1 receptor at 10 uM
Sequence of Histamine H1 receptor (Homo sapiens) (P35367 whole entry): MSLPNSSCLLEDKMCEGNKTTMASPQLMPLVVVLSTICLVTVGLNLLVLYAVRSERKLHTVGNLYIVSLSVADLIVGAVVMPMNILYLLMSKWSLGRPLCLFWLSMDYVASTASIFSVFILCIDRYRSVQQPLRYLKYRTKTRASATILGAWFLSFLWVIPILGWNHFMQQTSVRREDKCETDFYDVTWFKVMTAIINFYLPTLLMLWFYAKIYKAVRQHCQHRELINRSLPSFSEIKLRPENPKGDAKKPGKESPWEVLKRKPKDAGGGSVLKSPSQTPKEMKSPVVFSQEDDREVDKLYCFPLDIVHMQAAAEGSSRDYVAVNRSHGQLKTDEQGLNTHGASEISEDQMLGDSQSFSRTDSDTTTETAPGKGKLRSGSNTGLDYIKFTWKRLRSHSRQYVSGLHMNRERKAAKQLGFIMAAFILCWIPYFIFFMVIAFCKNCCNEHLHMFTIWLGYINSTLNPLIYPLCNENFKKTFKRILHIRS

Rattus norvegicus [28] = assay: Effect on sleep-awake cycle in EEG/EMG rat model assessed as wake promotion at 3 mg/kg, ip after 4 hrs (reference value: 80 +/- 5 mins); type: functional; details: route intraperitoneal
[29] = Drug uptake in rat brain at 5 mg/kg, po after 6 hrs; type: ADME, organism-based; design: dose 5 mg/kg, route oral; details: read-out: Drug uptake
Histamine H3 receptor [30] = target: T1, Histamine H3 receptor; assay: Antagonist activity at human histamine H3 receptor by [35S]GTPgammaS binding assay; type: functional
[31] = Solubility of the compound in water at pH 2; type: physicochemical
Cytochrome P450 3A4 = Cytochrome P450 3A4 (Homo sapiens, UniProt P08684); assay: Inhibition of CYP3A4; type: ADME
Sequence of Cytochrome P450 3A4 (P08684 whole entry): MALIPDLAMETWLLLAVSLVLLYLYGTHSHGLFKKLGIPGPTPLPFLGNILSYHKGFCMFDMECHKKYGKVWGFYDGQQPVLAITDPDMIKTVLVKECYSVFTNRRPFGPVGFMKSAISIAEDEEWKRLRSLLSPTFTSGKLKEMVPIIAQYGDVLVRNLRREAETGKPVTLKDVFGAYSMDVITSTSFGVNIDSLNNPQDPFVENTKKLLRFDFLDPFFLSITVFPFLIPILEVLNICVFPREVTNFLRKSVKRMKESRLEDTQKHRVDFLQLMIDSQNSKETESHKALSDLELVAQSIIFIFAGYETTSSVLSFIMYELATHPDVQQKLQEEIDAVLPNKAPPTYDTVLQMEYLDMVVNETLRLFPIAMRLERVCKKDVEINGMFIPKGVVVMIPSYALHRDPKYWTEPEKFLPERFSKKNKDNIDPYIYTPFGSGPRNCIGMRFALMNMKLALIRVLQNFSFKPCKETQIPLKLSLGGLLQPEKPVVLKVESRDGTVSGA

[32] = target: Histamine H2 receptor (Homo sapiens) (UniProt P25021); assay: Inhibition human histamine H2 receptor at 10 uM
Sequence of Histamine H2 receptor (Homo sapiens) (P25021 whole entry): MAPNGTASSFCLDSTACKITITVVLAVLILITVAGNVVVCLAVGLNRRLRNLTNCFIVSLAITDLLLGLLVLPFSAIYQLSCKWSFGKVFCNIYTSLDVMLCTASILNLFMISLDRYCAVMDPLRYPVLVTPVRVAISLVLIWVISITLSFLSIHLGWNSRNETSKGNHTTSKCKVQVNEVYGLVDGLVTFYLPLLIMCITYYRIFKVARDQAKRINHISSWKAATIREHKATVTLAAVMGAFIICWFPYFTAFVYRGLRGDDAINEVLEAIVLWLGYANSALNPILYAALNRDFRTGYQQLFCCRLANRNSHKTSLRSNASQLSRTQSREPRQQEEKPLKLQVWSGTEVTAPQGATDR

Rattus norvegicus [33] = assay: Effect on sleep-awake cycle in EEG/EMG rat model assessed as wake promotion at 1 mg/kg, ip after 4 hrs (reference value: 80 +/- 5 mins); type: functional; details: route intraperitoneal
[34] = Plasma protein binding in dog; type: ADME, cell-free, Canis lupus familiaris; details: read-out: PPB (converted)
Rattus norvegicus [35] = assay: Effect on sleep-awake cycle in ip dosed EEG/EMG rat model assessed as wake promotion after 4 hrs relative to control; type: functional, organism-based
[36] = target: T3, Muscarinic acetylcholine receptor M2 (Homo sapiens) (UniProt P08172); assay: Inhibition of muscarinic M2 receptor at 10 uM
T3 sequence (whole entry): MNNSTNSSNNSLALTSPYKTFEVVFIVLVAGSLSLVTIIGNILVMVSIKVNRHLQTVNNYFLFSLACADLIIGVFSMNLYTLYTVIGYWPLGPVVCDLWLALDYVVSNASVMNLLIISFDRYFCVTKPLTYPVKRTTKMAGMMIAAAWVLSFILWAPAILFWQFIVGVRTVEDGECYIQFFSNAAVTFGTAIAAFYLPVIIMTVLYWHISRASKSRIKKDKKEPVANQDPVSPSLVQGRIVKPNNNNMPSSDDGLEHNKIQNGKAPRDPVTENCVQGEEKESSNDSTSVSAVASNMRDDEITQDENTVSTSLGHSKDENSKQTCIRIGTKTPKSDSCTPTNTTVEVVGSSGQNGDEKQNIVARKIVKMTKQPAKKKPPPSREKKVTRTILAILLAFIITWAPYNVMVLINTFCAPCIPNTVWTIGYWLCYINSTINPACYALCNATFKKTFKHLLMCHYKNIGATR

T1 sequence (Q9Y5N1 whole entry): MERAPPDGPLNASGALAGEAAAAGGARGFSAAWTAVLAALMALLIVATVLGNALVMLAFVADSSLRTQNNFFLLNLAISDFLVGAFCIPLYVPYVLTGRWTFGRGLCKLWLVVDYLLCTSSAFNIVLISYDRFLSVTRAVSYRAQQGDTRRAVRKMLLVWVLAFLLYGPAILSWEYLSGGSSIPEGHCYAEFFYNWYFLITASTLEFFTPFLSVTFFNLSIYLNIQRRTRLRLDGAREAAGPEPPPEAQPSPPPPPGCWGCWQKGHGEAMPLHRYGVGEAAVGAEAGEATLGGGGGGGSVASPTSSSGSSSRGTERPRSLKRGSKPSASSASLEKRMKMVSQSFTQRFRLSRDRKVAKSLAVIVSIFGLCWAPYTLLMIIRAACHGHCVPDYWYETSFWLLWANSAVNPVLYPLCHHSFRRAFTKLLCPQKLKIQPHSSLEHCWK

C[C@@H]1CCCN1CCCOc1ccc(C2=NNC(=O)CC2c2ccccn2)cc1 (mixture of isomers)
Ki (Histamine H3 receptor [1]): 9.9 nM
Ki (Histamine H3 receptor [2]): 21 nM

CC1CC(=O)NN=C1c1ccc(OCCCN2CCCC2)cc1 (racemic)
Ki (Histamine H3 receptor [1]): 83 nM
Ki (Histamine H3 receptor [2]): 85 nM

C[C@@H]1CCCN1CCCOc1ccc(C2=NN(c3ccccn3)C(=O)CC2)cc1
Ki (Histamine H3 receptor [1]): 12 nM
Ki (Histamine H3 receptor [2]): 42 nM

C[C@@H]1CCCN1CCCOc1ccc(C2=NNC(=O)C(C)(C)C2)cc1
bioavailability [3]: 38%
IC50 (Cytochrome P450 2D6): > 30000 nM
clearance [4]: 27 mL/min/kg
Cmax [5]: 189 ng/mL
AUC [6]: 837 ng·h/mL
half-life [7]: 114 min
Activity (Rattus norvegicus [8]): 130 min
Activity (Rattus norvegicus [9]): 201 min
half-life [10]: > 40 min
Activity (Rattus norvegicus [11]): 90%
IC50 (Cytochrome P450 1A2): > 30000 nM
solubility [12]: > 2000 µg/mL
inhibition [13]: < 30%
EC50 (Histamine H3 receptor [14]): 0.73 nM
Kp at 6 h [15]: 2.4
half-life [16]: > 40 min
Activity (Rattus norvegicus [17]): 203 min
fraction unbound [18]: 0.72
Vd [19]: 4.7 L/kg
half-life [20]: > 40 min
IC50 (Cytochrome P450 2C19): > 30000 nM
Ki (Histamine H3 receptor [1]): 4.3 nM
ED50 (Rattus norvegicus [21]): 0.16 mg/kg
inhibition (Rattus norvegicus [21]): Dose-dependent effect
half-life [22]: > 40 min
fraction unbound [23]: 0.74
Papp [24]: 14 ×10⁻⁶ cm/s
half-life [25]: > 40 min
Activity (Rattus norvegicus [26]): 150%
IC50 (Cytochrome P450 2C9): > 30000 nM
inhibition [27]: < 30%
Activity (Rattus norvegicus [28]): 127 min
concentration at 6 h [29]: 900 nM
Kb (Histamine H3 receptor [30]): 0.18 nM
solubility [31]: > 2000 µg/mL
IC50 (Cytochrome P450 3A4): > 30000 nM
inhibition [32]: < 30%
Activity (Rattus norvegicus [33]): 119 min
fraction unbound [34]: 0.84
Activity (Rattus norvegicus [35]): Dose-dependent effect
Ki (Histamine H3 receptor [2]): 13 nM

C[C@H]1CCCN1CCCOc1ccc(C2=NNC(=O)CC2)cc1
Ki (Histamine H3 receptor [1]): 37 nM
Ki (Histamine H3 receptor [2]): 114 nM

CC1CC(=O)NN=C1c1ccc(OCCCN2CCC[C@H]2C)cc1 (single isomer, unassigned; isomer 2)
Kb (Histamine H3 receptor [30]): 0.54 nM

C[C@@H]1CCCN1CCCOc1ccc(C2=NNC(=O)CC2)cc1
bioavailability [3]: 19%
IC50 (Cytochrome P450 2D6): > 11000 nM
clearance [4]: 8.5 mL/min/kg
Cmax [5]: 376 ng/mL
AUC [6]: 1830 ng·h/mL
half-life [7]: 66 min
half-life [10]: > 40 min
IC50 (Cytochrome P450 1A2): > 30000 nM
solubility [12]: > 2000 µg/mL
EC50 (Histamine H3 receptor [14]): 0.7 nM
inhibition [36]: 60%
Kp at 6 h [15]: 3.1
half-life [16]: > 40 min
Vd [19]: 0.8 L/kg
half-life [20]: > 40 min
IC50 (Cytochrome P450 2C19): > 30000 nM
Ki (Histamine H3 receptor [1]): 3.2 nM
ED50 (Rattus norvegicus [21]): 0.06 mg/kg
inhibition (Rattus norvegicus [21]): Dose-dependent effect
half-life [22]: > 40 min
Papp [24]: 11.4 ×10⁻⁶ cm/s
half-life [25]: > 40 min
IC50 (Cytochrome P450 2C9): > 30000 nM
concentration at 6 h [29]: 2200 nM
solubility [31]: > 2000 µg/mL
IC50 (Cytochrome P450 3A4): > 11000 nM
Ki (Histamine H3 receptor [2]): 8.8 nM

CC1CC(=O)NN=C1c1ccc(OCCCN2CCCCC2)cc1 (racemic)
Ki (Histamine H3 receptor [1]): 21 nM
Ki (Histamine H3 receptor [2]): 28 nM

C[C@@H]1CCCN1CCCOc1ccc(C2=NN(C)C(=O)CC2)cc1
Ki (Histamine H3 receptor [1]): 5 nM
Ki (Histamine H3 receptor [2]): 16 nM

C[C@@H]1CCCN1CCCOc1ccc(C2=NN(Cc3ccccc3)C(=O)CC2)cc1
Ki (Histamine H3 receptor [1]): 2 nM
Ki (Histamine H3 receptor [2]): 25 nM

O=C1CCC(c2ccc(OCCCN3CCCCC3)cc2)=NN1CC(F)(F)F
Ki (Histamine H3 receptor [1]): 38 nM
Ki (Histamine H3 receptor [2]): 62 nM
